For 4 compounds, IC50 results are on record in ChEMBL document CHEMBL3108748, “Telomere maintenance as a target for drug discovery” (J Med Chem, 2014).

Experiment [1] deals with Telomerase reverse transcriptase (Rattus norvegicus, UniProt Q673L6). In words: Inhibition of rat telomerase by TRAP assay.
In experiment [2] the target is T1, Telomerase reverse transcriptase (Homo sapiens, UniProt O14746). In words: Inhibition of human telomerase activity in human Jurkat cells by TRAP assay. The class given is cell-based.
T1 sequence (O14746 whole entry): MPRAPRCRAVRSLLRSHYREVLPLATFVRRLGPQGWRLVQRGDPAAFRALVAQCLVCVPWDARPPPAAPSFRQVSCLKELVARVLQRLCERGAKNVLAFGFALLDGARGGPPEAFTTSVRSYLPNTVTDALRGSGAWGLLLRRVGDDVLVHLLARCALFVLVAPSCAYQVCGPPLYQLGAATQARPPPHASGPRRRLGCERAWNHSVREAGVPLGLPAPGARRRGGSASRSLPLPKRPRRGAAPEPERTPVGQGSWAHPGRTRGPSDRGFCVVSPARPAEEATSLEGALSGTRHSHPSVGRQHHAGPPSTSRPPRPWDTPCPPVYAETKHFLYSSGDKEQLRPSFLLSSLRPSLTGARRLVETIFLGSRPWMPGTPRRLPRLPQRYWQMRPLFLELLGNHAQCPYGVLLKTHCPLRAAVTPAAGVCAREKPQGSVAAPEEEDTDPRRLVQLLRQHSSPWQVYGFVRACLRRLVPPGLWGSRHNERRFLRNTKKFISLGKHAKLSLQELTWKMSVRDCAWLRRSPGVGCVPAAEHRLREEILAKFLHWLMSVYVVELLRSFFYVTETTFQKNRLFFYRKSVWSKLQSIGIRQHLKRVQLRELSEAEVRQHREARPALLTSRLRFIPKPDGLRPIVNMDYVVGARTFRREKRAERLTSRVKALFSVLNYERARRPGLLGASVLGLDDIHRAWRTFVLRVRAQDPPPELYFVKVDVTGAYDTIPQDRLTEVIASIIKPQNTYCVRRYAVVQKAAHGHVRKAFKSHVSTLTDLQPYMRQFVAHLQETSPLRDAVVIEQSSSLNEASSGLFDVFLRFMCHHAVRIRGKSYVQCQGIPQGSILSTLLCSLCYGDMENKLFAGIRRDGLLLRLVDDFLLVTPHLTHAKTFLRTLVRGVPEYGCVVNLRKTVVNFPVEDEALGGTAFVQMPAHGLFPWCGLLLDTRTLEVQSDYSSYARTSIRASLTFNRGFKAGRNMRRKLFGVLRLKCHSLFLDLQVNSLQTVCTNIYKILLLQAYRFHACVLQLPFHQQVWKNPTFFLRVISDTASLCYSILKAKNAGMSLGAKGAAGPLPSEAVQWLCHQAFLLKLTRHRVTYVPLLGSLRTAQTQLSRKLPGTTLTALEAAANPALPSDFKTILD
Experiment [3] has as its target T1, Telomerase reverse transcriptase. In words: Inhibition of human telomerase activity by TRAP assay.
The target is the same in experiment [4]. In words: Inhibition of human telomerase activity after 8 mins by SYBR Green staining-based TRAP assay.

Chain of Telomerase reverse transcriptase (Rattus norvegicus, UniProt Q673L6) (Q673L6 whole entry): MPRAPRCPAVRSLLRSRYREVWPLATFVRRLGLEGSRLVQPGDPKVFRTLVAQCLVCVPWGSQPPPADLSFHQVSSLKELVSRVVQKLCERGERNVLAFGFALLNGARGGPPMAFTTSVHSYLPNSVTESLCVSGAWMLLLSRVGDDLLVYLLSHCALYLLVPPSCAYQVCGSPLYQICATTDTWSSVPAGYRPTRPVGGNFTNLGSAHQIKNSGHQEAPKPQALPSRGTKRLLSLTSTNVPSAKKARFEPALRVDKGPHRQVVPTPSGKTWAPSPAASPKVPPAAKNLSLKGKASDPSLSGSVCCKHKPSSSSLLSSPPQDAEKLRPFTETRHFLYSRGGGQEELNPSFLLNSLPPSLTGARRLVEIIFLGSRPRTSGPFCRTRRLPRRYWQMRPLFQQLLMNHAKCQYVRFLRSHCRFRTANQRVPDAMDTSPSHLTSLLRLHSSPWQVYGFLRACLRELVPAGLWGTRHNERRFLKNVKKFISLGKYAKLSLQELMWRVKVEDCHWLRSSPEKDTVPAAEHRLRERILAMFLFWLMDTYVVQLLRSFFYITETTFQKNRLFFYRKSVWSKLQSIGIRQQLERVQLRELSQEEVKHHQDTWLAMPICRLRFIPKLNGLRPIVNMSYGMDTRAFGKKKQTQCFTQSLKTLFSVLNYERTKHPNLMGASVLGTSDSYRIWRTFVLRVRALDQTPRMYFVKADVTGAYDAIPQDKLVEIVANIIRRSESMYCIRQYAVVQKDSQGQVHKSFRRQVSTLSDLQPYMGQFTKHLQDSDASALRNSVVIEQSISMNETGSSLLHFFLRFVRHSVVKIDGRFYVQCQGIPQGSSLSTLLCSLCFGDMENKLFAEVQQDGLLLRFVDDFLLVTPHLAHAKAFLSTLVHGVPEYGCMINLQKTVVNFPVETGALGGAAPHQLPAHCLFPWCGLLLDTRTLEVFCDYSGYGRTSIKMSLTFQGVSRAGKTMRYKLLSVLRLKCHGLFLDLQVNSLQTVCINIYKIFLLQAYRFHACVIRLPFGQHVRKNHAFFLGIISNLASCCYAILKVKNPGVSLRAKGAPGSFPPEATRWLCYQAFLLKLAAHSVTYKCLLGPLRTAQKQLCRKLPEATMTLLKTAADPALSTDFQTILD

For orientation: IC50 means the concentration needed to halve the response being measured. A low value points to greater potency in that assay. For the compound `O=c1ccsn1-c1cccc(C(F)(F)F)c1`, the IC50 in experiment [1] worked out at 1000 nM.

Compound `COc1ccc2c(c1)CC[C@@H]1[C@@H]2CC[C@]2(C)[C@@H](NCCCCCCN3C(=O)C=CC3=O)CC[C@@H]12` came in with an IC50 in experiment [2] of 200 nM.

Turning to `N=C(N)Nc1nc(-c2cc(Cl)sc2Cl)cs1`, in experiment [3], the IC50 was 1000 nM.

In the case of `O=[N+]([O-])/C=C/c1cccc(Oc2cc(Cl)cc(Cl)c2)c1`, the concentration for half-maximal inhibition (IC50) in experiment [4] came to 400 nM. In other words, the sub-micromolar range.
